# According to ChEMBL document CHEMBL4152332, “Discovery and synthesis of novel magnolol derivatives with potent anticancer activity in non-small cell lung cancer” (Eur J Med Chem, 2018):
# Experiments:
# Mus musculus [1] = experiment: Toxicity in Balb/c mouse implanted with mouse C26 cells assessed as change in body weight at 100 mg/kg, po qd treated for 10 days and measured every 2 days (RVB = 16.4%); assay type: organism-based; settings: in vivo
# NCI-H460 = experiment: Antiproliferative activity against human H460 cells after 72 hrs by MTT assay; assay type: functional, cell-based; settings: NCI-H460, 72 h
# A549 = experiment: Antiproliferative activity against human A549 cells after 72 hrs by MTT assay; assay type: functional, cell-based; settings: A549, 72 h
# NCI-H1650 = experiment: Antiproliferative activity against human NCI-H1650 cells after 72 hrs by MTT assay; assay type: functional, cell-based; settings: NCI-H1650, 72 h
# NCI-H1975 [2] = experiment: Cell cycle arrest in human NCI-H1975 cells assessed as accumulation at G0/G1 phase at 10 uM after 24 hrs by propidium iodide staining-based flow cytometric analysis (reference value: 56.11%); assay type: functional
# NCI-H1975 [3] = experiment: Cell cycle arrest in human NCI-H1975 cells assessed as accumulation at G2/M phase at 10 uM after 24 hrs by propidium iodide staining-based flow cytometric analysis (reference value: 20.11%); assay type: functional
# NCI-H1975 [4] = experiment: Cell cycle arrest in human NCI-H1975 cells assessed as accumulation at S phase at 20 uM after 24 hrs by propidium iodide staining-based flow cytometric analysis (reference value: 22.93%); assay type: functional
# NCI-H1975 [5] = experiment: Induction of apoptosis in human NCI-H1975 cells after 48 hrs by annexin V/FITC-propidium iodide staining-based flow cytometric method; assay type: functional, cell-based
# NCI-H1975 [6] = experiment: Induction of apoptosis in human NCI-H1975 cells assessed as early apoptotic cells at 5 uM after 48 hrs by annexin V/FITC-propidium iodide staining-based flow cytometric method ( Rvb = 6.09%); assay type: functional
# NCI-H1975 [7] = experiment: Induction of apoptosis in human NCI-H1975 cells assessed as late apoptotic cells at 5 uM after 48 hrs by annexin V/FITC-propidium iodide staining-based flow cytometric method ( Rvb = 10.4%); assay type: functional
# NCI-H1975 [8] = experiment: Induction of apoptosis in human NCI-H1975 cells assessed as necrotic cells at 5 uM after 48 hrs by annexin V/FITC-propidium iodide staining-based flow cytometric method ( Rvb = 1.01%); assay type: functional
# NCI-H1975 [9] = experiment: Induction of apoptosis in human NCI-H1975 cells assessed as late apoptotic cells at 10 uM after 48 hrs by annexin V/FITC-propidium iodide staining-based flow cytometric method ( Rvb = 10.4%); assay type: functional
# NCI-H1975 [10] = experiment: Induction of apoptosis in human NCI-H1975 cells assessed as necrotic cells at 10 uM after 48 hrs by annexin V/FITC-propidium iodide staining-based flow cytometric method ( Rvb = 1.01%); assay type: functional
# NCI-H1975 [11] = experiment: Induction of apoptosis in human NCI-H1975 cells assessed as viable cells at 10 uM after 48 hrs by annexin V/FITC-propidium iodide staining-based flow cytometric method ( Rvb = 82.5%); assay type: functional; settings: NCI-H1975, 48 h, read-out: Activity
# NCI-H1975 [12] = experiment: Induction of apoptosis in human NCI-H1975 cells assessed as early apoptotic cells at 20 uM after 48 hrs by annexin V/FITC-propidium iodide staining-based flow cytometric method ( Rvb = 6.09%); assay type: functional
# NCI-H1975 [13] = experiment: Induction of apoptosis in human NCI-H1975 cells assessed as late apoptotic cells at 20 uM after 48 hrs by annexin V/FITC-propidium iodide staining-based flow cytometric method ( Rvb = 10.4%); assay type: functional
# [14] = Antitumor activity against mouse C26 cells implanted in Balb/c mouse assessed as tumor growth inhibition at 100 mg/kg, po qd and measured every 2 days relative to control; assay type: functional; settings: 48 h, read-out: TGI
# Mus musculus [15] = experiment: Toxicity in Balb/c mouse xenografted with human NCI-H1975 cells assessed as mouse death at 5 to 20 mg/kg, iv treated every 2 days for 9 days and measured every 2 days after compound dosing; assay type: organism-based; settings: in vivo
# NCI-H1975 [16] = experiment: Antitumor activity against human NCI-H1975 cells xenografted in Balb/c mouse assessed as change in tumor mass at 10 mg/kg, po qd treated for 18 days and measured every 2 days after compound dosing relative to control; assay type: functional
# NCI-H1975 [17] = experiment: Antitumor activity against human NCI-H1975 cells xenografted in Balb/c mouse assessed as change in tumor mass at 100 mg/kg, po qd treated for 18 days and measured every 2 days after compound dosing relative to control; assay type: functional
# NCI-H1975 [18] = experiment: Antitumor activity against human NCI-H1975 cells xenografted in Balb/c mouse assessed as change in tumor mass at 5 mg/kg, iv treated every 2 days for 9 days and measured every 2 days after compound dosing relative to control; assay type: functional
# NCI-H1975 [19] = experiment: Antitumor activity against human NCI-H1975 cells xenografted in Balb/c mouse assessed as change in tumor mass at 10 mg/kg, iv treated every 2 days for 9 days and measured every 2 days after compound dosing relative to control; assay type: functional
# NCI-H1975 [20] = experiment: Induction of apoptosis in human NCI-H1975 cells assessed as decrease in Cdk2 level after 24 hrs by Western blot analysis; assay type: functional, cell-based
# NCI-H1975 [21] = experiment: Induction of apoptosis in human NCI-H1975 cells assessed as decrease in Cdk4 level after 24 hrs by Western blot analysis; assay type: functional, cell-based
# NCI-H1975 [22] = experiment: Induction of apoptosis in human NCI-H1975 cells assessed as decrease in cyclin D1 level after 24 hrs by Western blot analysis; assay type: functional, cell-based
# NCI-H1975 [23] = experiment: Induction of apoptosis in human NCI-H1975 cells assessed as increase in cleaved PARP level after 48 hrs by Western blot analysis; assay type: functional, cell-based
# NCI-H1975 [24] = experiment: Induction of apoptosis in human NCI-H1975 cells assessed as increase in cleaved caspase-3 level after 48 hrs by Western blot analysis; assay type: functional, cell-based
# Mus musculus [25] = experiment: Toxicity in Balb/c mouse xenografted with human NCI-H1975 cells assessed as induction of vascular irritation at 5 to 20 mg/kg, iv treated every 2 days for 9 days; assay type: organism-based; settings: in vivo
# Mus musculus [26] = experiment: Toxicity in Balb/c mouse xenografted with human NCI-H1975 cells assessed as effect on liver size at 5 to 20 mg/kg, iv treated every 2 days for 9 days; assay type: organism-based; settings: in vivo
# Mus musculus [27] = experiment: Toxicity in Balb/c mouse xenografted with human NCI-H1975 cells assessed as effect on liver morphology at 5 to 20 mg/kg, iv treated every 2 days for 9 days; assay type: organism-based; settings: in vivo
# Mus musculus [28] = experiment: Toxicity in Balb/c mouse xenografted with human NCI-H1975 cells assessed as effect on kidney size at 5 to 20 mg/kg, iv treated every 2 days for 9 days; assay type: organism-based; settings: in vivo
# Mus musculus [29] = experiment: Toxicity in Balb/c mouse xenografted with human NCI-H1975 cells assessed as effect on lung morphology at 5 to 20 mg/kg, iv treated every 2 days for 9 days; assay type: organism-based; settings: in vivo
# Mus musculus [30] = experiment: Toxicity in Balb/c mouse xenografted with human NCI-H1975 cells assessed as effect on heart size at 5 to 20 mg/kg, iv treated every 2 days for 9 days; assay type: organism-based; settings: in vivo
# NCI-H1975 [31] = experiment: Potency index, ratio of IC50 for honokiol to IC50 for test compound for antiproliferative activity against human NCI-H1975 cells after 72 hrs by MTT assay; assay type: functional
# HCC827 = experiment: Potency index, ratio of IC50 for magnolol to IC50 for test compound for antiproliferative activity against human HCC827 cells after 72 hrs by MTT assay; assay type: functional
# NCI-H1975 [32] = experiment: Potency index, ratio of IC50 for magnolol to IC50 for test compound for antiproliferative activity against human NCI-H1975 cells after 72 hrs by MTT assay; assay type: functional
smiles,measurement,setting,value
C=CCc1ccc(O)c(-c2cc(CC=C)cc(CN3CCC(N)CC3)c2O)c1,Activity,Mus musculus [1],-9.3%
same,IC50,NCI-H460,5.98 µM
same,IC50,A549,5.48 µM
same,IC50,NCI-H1650,4.81 µM
same,Activity,NCI-H1975 [2],67.09%
same,Activity,NCI-H1975 [3],12.73%
same,Activity,NCI-H1975 [4],12.63%
same,Activity,NCI-H1975 [5],Dose-dependent effect
same,Activity,NCI-H1975 [6],6.68%
same,Activity,NCI-H1975 [7],26.3%
same,Activity,NCI-H1975 [8],0.52%
same,Activity,NCI-H1975 [9],32.8%
same,Activity,NCI-H1975 [10],0.4%
same,viability at 10 µM,NCI-H1975 [11],56.7%
same,Activity,NCI-H1975 [12],46.8%
same,Activity,NCI-H1975 [13],49.1%
same,inhibition in vivo at 100 mg/kg,[14],47.9%
same,Activity,Mus musculus [15],Non-Toxic
same,Activity,NCI-H1975 [16],46.3%
same,Activity,NCI-H1975 [17],61.2%
same,Activity,NCI-H1975 [18],49.2%
same,Activity,NCI-H1975 [19],57.5%
same,Activity,NCI-H1975 [20],Dose-dependent effect
same,Activity,NCI-H1975 [21],Dose-dependent effect
same,Activity,NCI-H1975 [22],Dose-dependent effect
same,Activity,NCI-H1975 [23],Dose-dependent effect
same,Activity,NCI-H1975 [24],Dose-dependent effect
same,Activity,Mus musculus [25],Non-Toxic
same,Activity,Mus musculus [26],Non-Toxic
same,Activity,Mus musculus [27],Non-Toxic
same,Activity,Mus musculus [28],Non-Toxic
same,Activity,Mus musculus [29],Non-Toxic
same,Activity,Mus musculus [30],Non-Toxic
same,Ratio IC50,NCI-H1975 [31],4
same,Ratio IC50,HCC827,8
same,Ratio IC50,NCI-H1975 [32],8
